The text below walks through data of patent US20240124491A1, “METHODS AND COMPOUNDS FOR TREATING FRIEDREICH'S ATAXIA” (Design Therapeutics, Inc., priority 2021, published 2024).

This test concerns human FXN. Kind of test: EC50 assay: FXN mRNA expression by qRT-PCR in GM15850 cells after 48 hrs compound treatment. The class given is cell-based. As to conditions: Homo sapiens, 48 hrs incubation, hFXN expression normalized to hGAPDH (qRT-PCR), read-out: EC50 WT (nM, 48 hr). The gist of the method:
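FXN transcript, normalized to GAPDH by TaqMan qRT-PCR, read out after 48 hrs of compound on GM15850 cells plated at 150,000 per well. Dosing used five 3-fold steps from 150 nM final, vehicle 0.01% DMSO.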
(In general: Quantitative PCR measures a nucleic acid by following its amplification.)

Structures are written as SMILES.

A word on the EC50: it is the concentration giving half of the maximal effect. As to `Cc1cc(F)cc(C)c1Oc1ccc(C(C)(C)O)cc1-c1cn(C)c(=O)c2[nH]c(C(=O)N3CCC(C#CC#CC4CCN(CCOCCOCCOCCOCCNC(=O)CCNC(=O)c5nc(NC(=O)CCNC(=O)c6cc(NC(=O)c7nc(NC(=O)CCNC(=O)c8cc(NC(=O)c9nccn9C)cn8C)cn7C)cn6C)cn5C)CC4)CC3)cc12` [Compound 135], the EC50 lay in the range of 100 to 500 nM.
The same measure for `CC(=O)Nc1c(O[C@@H](C)c2ccccc2)cc(C=O)c(N2CCC(C#CC#CC3CCN(CCOCCOCCOCCOCCNC(=O)CCNC(=O)c4nc(NC(=O)CCNC(=O)c5cc(NC(=O)c6nc(NC(=O)CCNC(=O)c7cc(NC(=O)c8nccn8C)cn7C)cn6C)cn5C)cn4C)CC3)CC2)c1F` [Compound 136]: above 500 nM; for `Cc1sc2c(c1C)C(c1ccc(Cl)cc1)=N[C@@H](CC(=O)N1CCC(C#CC#CC3CCN(CCOCCOCCNC(=O)CCNC(=O)c4nc(NC(=O)CCNC(=O)c5cc(NC(=O)c6nc(NC(=O)CCNC(=O)c7cc(NC(=O)c8nccn8C)cn7C)cn6C)cn5C)cn4C)CC3)CC1)c1nnc(C)n1-2` [Compound 138]: below 100 nM.
The result for `Cc1sc2c(c1C)C(c1ccc(Cl)cc1)=N[C@@H](CC(=O)N1CCC(C#CC#CC3CCN(CCOCCOCCOCCNC(=O)CCNC(=O)c4nc(NC(=O)CCNC(=O)c5cc(NC(=O)c6nc(NC(=O)CCNC(=O)c7cc(NC(=O)c8nccn8C)cn7C)cn6C)cn5C)cn4C)CC3)CC1)c1nnc(C)n1-2` [Compound 139] reads below 100 nM.
For the molecule `Cc1sc2c(c1C)C(c1ccc(Cl)cc1)=N[C@@H](CC(=O)N1CCC(C#CC#CC3CCN(CCOCCOCCOCCOCCOCCNC(=O)CCNC(=O)c4nc(NC(=O)CCNC(=O)c5cc(NC(=O)c6nc(NC(=O)CCNC(=O)c7cc(NC(=O)c8nccn8C)cn7C)cn6C)cn5C)cn4C)CC3)CC1)c1nnc(C)n1-2` [Compound 140], the EC50 was below 100 nM.
The same measure for `Cc1sc2c(c1C)C(c1ccc(Cl)cc1)=N[C@@H](CC(=O)N1CCC(C#CC#CC3CCN(CCOCCOCCOCCOCCOCCOCCNC(=O)CCNC(=O)c4nc(NC(=O)CCNC(=O)c5cc(NC(=O)c6nc(NC(=O)CCNC(=O)c7cc(NC(=O)c8nccn8C)cn7C)cn6C)cn5C)cn4C)CC3)CC1)c1nnc(C)n1-2` [Compound 141]: below 100 nM; for `Cc1sc2c(c1C)C(c1ccc(Cl)cc1)=N[C@@H](CC(=O)N1CCC(C#CC#CC3CCN(CCOCCOCCOCCOCCOCCOCCOCCNC(=O)CCNC(=O)c4nc(NC(=O)CCNC(=O)c5cc(NC(=O)c6nc(NC(=O)CCNC(=O)c7cc(NC(=O)c8nccn8C)cn7C)cn6C)cn5C)cn4C)CC3)CC1)c1nnc(C)n1-2` [Compound 142]: below 100 nM.
With `CC(=O)N1c2ccc(-c3ccc(C(=O)N4CCC(C#CC#CC5CCN(CCOCCOCCNC(=O)CCNC(=O)c6nc(NC(=O)CCNC(=O)c7cc(NC(=O)c8nc(NC(=O)CCNC(=O)c9cc(NC(=O)c%10nccn%10C)cn9C)cn8C)cn7C)cn6C)CC5)CC4)cc3)cc2C(Nc2ccc(Cl)cc2)C[C@@H]1C` (stereo partly drawn) [Compound 144], the EC50 is below 100 nM.
On to `CC(=O)N1c2ccc(-c3ccc(C(=O)N4CCC(C#CC#CC5CCN(CCOCCOCCOCCOCCNC(=O)CCNC(=O)c6nc(NC(=O)CCNC(=O)c7cc(NC(=O)c8nc(NC(=O)CCNC(=O)c9cc(NC(=O)c%10nccn%10C)cn9C)cn8C)cn7C)cn6C)CC5)CC4)cc3)cc2C(Nc2ccc(Cl)cc2)C[C@@H]1C` (stereo partly drawn) [Compound 145], for which the EC50 was below 100 nM.
The result for `CC(=O)N1c2ccc(-c3ccc(C(=O)N4CCC(C#CC#CC5CCN(CCOCCOCCOCCOCCOCCOCCNC(=O)CCNC(=O)c6nc(NC(=O)CCNC(=O)c7cc(NC(=O)c8nc(NC(=O)CCNC(=O)c9cc(NC(=O)c%10nccn%10C)cn9C)cn8C)cn7C)cn6C)CC5)CC4)cc3)cc2C(Nc2ccc(Cl)cc2)C[C@@H]1C` (stereo partly drawn) [Compound 150] reads below 100 nM.
`Cc1sc2c(c1C)C(c1ccc(Cl)cc1)=N[C@@H](CC(=O)NC1CCN(C(C)(C)C#CC#CC3CCN(CCOCCOCCOCCOCCOCCNC(=O)CCNC(=O)c4nc(NC(=O)CCNC(=O)c5cc(NC(=O)c6nc(NC(=O)CCNC(=O)c7cc(NC(=O)c8nccn8C)cn7C)cn6C)cn5C)cn4C)CC3)CC1)c1nnc(C)n1-2` [Compound 151]: the EC50 is below 100 nM.
The same measure for `Cc1sc2c(c1C)C(c1ccc(Cl)cc1)=N[C@@H](CC(=O)NC1CCN(CC#CC#CC3CCN(CCOCCOCCNC(=O)CCNC(=O)c4nc(NC(=O)CCNC(=O)c5cc(NC(=O)c6nc(NC(=O)CCNC(=O)c7cc(NC(=O)c8nccn8C)cn7C)cn6C)cn5C)cn4C)CC3)CC1)c1nnc(C)n1-2` [Compound 155]: below 100 nM.
The same measure for `Cc1sc2c(c1C)C(c1ccc(Cl)cc1)=N[C@@H](CC(=O)NC1CCN(CC#CC#CC3CCN(CCOCCOCCOCCNC(=O)CCNC(=O)c4nc(NC(=O)CCNC(=O)c5cc(NC(=O)c6nc(NC(=O)CCNC(=O)c7cc(NC(=O)c8nccn8C)cn7C)cn6C)cn5C)cn4C)CC3)CC1)c1nnc(C)n1-2` [Compound 156]: below 100 nM; for `Cc1sc2c(c1C)C(c1ccc(Cl)cc1)=N[C@@H](CC(=O)NC1CCN(CC#CC#CC3CCN(CCOCCOCCOCCOCCOCCOCCOCCNC(=O)CCNC(=O)c4nc(NC(=O)CCNC(=O)c5cc(NC(=O)c6nc(NC(=O)CCNC(=O)c7cc(NC(=O)c8nccn8C)cn7C)cn6C)cn5C)cn4C)CC3)CC1)c1nnc(C)n1-2` [Compound 157]: below 100 nM.
Take `Cc1cc(F)cc(C)c1Oc1ccc(C(C)(C)O)cc1-c1cn(C)c(=O)c2[nH]c(C(=O)NC3CCN(CC#CC#CC4CCN(CCOCCOCCOCCOCCOCCNC(=O)CCNC(=O)c5nc(NC(=O)CCNC(=O)c6cc(NC(=O)c7nc(NC(=O)CCNC(=O)c8cc(NC(=O)c9nccn9C)cn8C)cn7C)cn6C)cn5C)CC4)CC3)cc12` [Compound 158]: the EC50 was below 100 nM.
Turning to `Cc1sc2c(c1C)C(c1ccc(Cl)cc1)=N[C@@H](CC(=O)NC1CCN(C(C)(C)C#CC#CCNCCOCCOCCOCCOCCOCCNC(=O)CCNC(=O)c3nc(NC(=O)CCNC(=O)c4cc(NC(=O)c5nc(NC(=O)CCNC(=O)c6cc(NC(=O)c7nccn7C)cn6C)cn5C)cn4C)cn3C)CC1)c1nnc(C)n1-2` [Compound 159], the 50% effective concentration (EC50) is below 100 nM.
Regarding `Cc1sc2c(c1C)C(c1ccc(Cl)cc1)=N[C@@H](CC(=O)N1CCC(C#CC#CC3CCN(CCOCCNC(=O)CCNC(=O)c4nc(NC(=O)CCNC(=O)c5cc(NC(=O)c6nc(NC(=O)CCNC(=O)c7cc(NC(=O)c8nccn8C)cn7C)cn6C)cn5C)cn4C)CC3)CC1)c1nnc(C)n1-2` [Compound 160], the half-maximal effective concentration (EC50) was below 100 nM.
Take `Cc1sc2c(c1C)C(c1ccc(Cl)cc1)=N[C@@H](CC(=O)N1CCC(C#CC#CC3CCN(CCNC(=O)CCNC(=O)c4nc(NC(=O)CCNC(=O)c5cc(NC(=O)c6nc(NC(=O)CCNC(=O)c7cc(NC(=O)c8nccn8C)cn7C)cn6C)cn5C)cn4C)CC3)CC1)c1nnc(C)n1-2` [Compound 161]: the EC50 was below 100 nM.
The result for `Cc1sc2c(c1C)C(c1ccc(Cl)cc1)=N[C@@H](CC(=O)N1CCC(C#CC#CCNCCOCCNC(=O)CCNC(=O)c3nc(NC(=O)CCNC(=O)c4cc(NC(=O)c5nc(NC(=O)CCNC(=O)c6cc(NC(=O)c7nccn7C)cn6C)cn5C)cn4C)cn3C)CC1)c1nnc(C)n1-2` [Compound 163] reads below 100 nM; that for `Cc1sc2c(c1C)C(c1ccc(Cl)cc1)=N[C@@H](CC(=O)N1CCC(C#CC#CCNC(=O)CCNC(=O)c3nc(NC(=O)CCNC(=O)c4cc(NC(=O)c5nc(NC(=O)CCNC(=O)c6cc(NC(=O)c7nccn7C)cn6C)cn5C)cn4C)cn3C)CC1)c1nnc(C)n1-2` [Compound 164], above 500 nM.
The same measure for `Cc1cc(F)cc(C)c1Oc1ccc(C(C)(C)O)cc1-c1cn(C)c(=O)c2[nH]c(C(=O)N3CCN(CC4CCN(CCOCCOCCOCCOCCOCCOCCNC(=O)CCNC(=O)c5nc(NC(=O)CCNC(=O)c6cc(NC(=O)c7nc(NC(=O)CCNC(=O)c8cc(NC(=O)c9nccn9C)cn8C)cn7C)cn6C)cn5C)CC4)CC3)cc12` [Compound 167]: above 500 nM; for `Cc1cc(F)cc(C)c1Oc1ccc(C(C)(C)O)cc1-c1cn(C)c(=O)c2[nH]c(C(=O)N3CCC(CN4CCN(CCOCCOCCOCCOCCOCCOCCNC(=O)CCNC(=O)c5nc(NC(=O)CCNC(=O)c6cc(NC(=O)c7nc(NC(=O)CCNC(=O)c8cc(NC(=O)c9nccn9C)cn8C)cn7C)cn6C)cn5C)CC4)CC3)cc12` [Compound 168]: 100 to 500 nM.
The result for `Cc1cc(F)cc(C)c1Oc1ccc(C(C)(C)O)cc1-c1cn(C)c(=O)c2[nH]c(C(=O)N3CCN(C4CCN(CCOCCOCCOCCOCCC(=O)NCCCN(CCCNC(=O)CCNC(=O)c5nc(NC(=O)CCNC(=O)c6cc(NC(=O)c7nc(NC(=O)CCNC(=O)c8cc(NC(=O)c9nccn9C)cn8C)cn7C)cn6C)cn5C)CC(F)(F)F)CC4)CC3)cc12` [Compound 169] reads 100 to 500 nM; that for `Cc1cc(F)cc(C)c1Oc1ccc(C(C)(C)O)cc1-c1cn(C)c(=O)c2[nH]c(C(=O)N3CCC(N4CCN(CCOCCOCCOCCOCCC(=O)NCCCN(CCCNC(=O)CCNC(=O)c5nc(NC(=O)CCNC(=O)c6cc(NC(=O)c7nc(NC(=O)CCNC(=O)c8cc(NC(=O)c9nccn9C)cn8C)cn7C)cn6C)cn5C)CC(F)(F)F)CC4)CC3)cc12` [Compound 170], above 500 nM; that for `Cc1cc(F)cc(C)c1Oc1ccc(C(C)(C)O)cc1-c1cn(C)c(=O)c2[nH]c(C(=O)NC3CCN(CC#CC#CC4CCN(CCOCCOCCOCCOCCOCCOCCOCCNC(=O)CCNC(=O)c5nc(NC(=O)CCNC(=O)c6cc(NC(=O)c7nc(NC(=O)CCNC(=O)c8cc(NC(=O)c9nccn9C)cn8C)cn7C)cn6C)cn5C)CC4)CC3)cc12` [Compound 175], below 100 nM.
As for `Cc1cc(F)cc(C)c1Oc1ccc(C(C)(C)O)cc1-c1cn(C)c(=O)c2[nH]c(C(=O)NC3CCN(CC#CC#CC4CCN(CCOCCOCCNC(=O)CCNC(=O)c5nc(NC(=O)CCNC(=O)c6cc(NC(=O)c7nc(NC(=O)CCNC(=O)c8cc(NC(=O)c9nccn9C)cn8C)cn7C)cn6C)cn5C)CC4)CC3)cc12` [Compound 176], the 50% effective concentration (EC50) is below 100 nM.
The same measure for `Cc1cc(F)cc(C)c1Oc1ccc(C(C)(C)O)cc1-c1cn(C)c(=O)c2[nH]c(C(=O)Nc3ccc(OCCOCCOCCOCCOCCOCCOCCOCCOCCOCCNC(=O)CCNC(=O)c4nc(NC(=O)CCNC(=O)c5cc(NC(=O)c6nc(NC(=O)CCNC(=O)c7cc(NC(=O)c8nccn8C)cn7C)cn6C)cn5C)cn4C)cc3)cc12` [Compound 195]: below 100 nM.
